From patent US6555692B1, “Preparation and use of bifunctional molecules having DNA sequence binding specificity” (California Institute of Technology, priority 1996, dated 2003)

Key:
5′-AACCAAGTCTTGGTA-3′ = experiment: Association constants, recognition of 15 base pairs; details: for Specificity Center mismatch: match vs 5′-AACCAACTGTTGGTA-3′; for Specificity Edge mismatch: match vs 5′-AACCAAGTCTTGCGA-3′; for Ka 5′-AACCAAGTCTTGGTA-3′: Table 7, C3-OH polyamides, match site; for Specificity 5′-AACCAACTGTTGGTA-3′: Table 7, center mismatch; for Specificity 5′-AACCAAGTCTTGCGA-3′: Table 7, edge mismatch
[1] = test system: 5 to 10 base pair sites based on a 5′-TGACA-3′ core sequence; experiment: Footprint titration of three- to eight-ring polyamide dimers (Table 2); type: binding; details: 22° C., pH 7.0; for association constant: mean of at least three footprint titrations
Text: To determine the effect of polyamide length on binding site size, binding affinity, and sequence specificity, a series of six polyamides containing three to eight rings was synthesized. (Kelly, et al. Proc. Natl. Acad. Sci. U.S.A. 93, 6981-6985 (1996).) The series is based on ImPyPy-Dp with pyrrolecarboxamide moieties added sequentially to the C-termini to afford ImPyPyPy-Dp, ImPyPyPyPy-Dp, ImPyPyPyPyPy-Dp, ImPyPyPyPyPyPy-Dp, and ImPyPyPyPyPyPyPy-Dp which are designed to bind 5 to 10 base pair sites, respectively as side-by-side antiparallel dimers. DNA binding sites are based on a 5′-TGACA-3′ core sequence and contain sequential A,T inserts in the center of the binding site that will be recognized by the additional pyrrole carboxamides.

5′-TGTCAAAGACA-3′ = experiment: Recognition of 9-11 base pairs (Table 9); type: binding; details: 22° C. and pH 7.0
Text: (§1) Table 9 illustrates recognition of recognition of 9-11 base pairs by ImPyPy-X-ImPyPy-β-Dp.

5′-TGTCAAGACA-3′ = experiment: Recognition of 9-11 base pairs (Table 9); type: binding; details: 22° C. and pH 7.0
Text: as §1

5′-TGTCAGACA-3′ = experiment: Recognition of 9-11 base pairs (Table 9); type: binding; details: 22° C. and pH 7.0
Text: as §1

5′-gcggtTGTCAacccg-3′ = experiment: Recognition of 9-11 base pairs (Table 9); type: binding; details: 22° C. and pH 7.0
Text: as §1

[2] = Table 5, ImPyPy-X-ImImPy-γ-PyPyPy-β-Dp, 24° C., pH 7.0
[3] = Table 6, ImImPy-γ-PyPyPy-X-ImPyPy-β-Dp

## CN(C)CCCNC(=O)CCNC(=O)c1cc(NC(=O)c2cc(NC(=O)c3cc(NC(=O)CCCNC(=O)c4cc(NC(=O)c5nc(NC(=O)c6nc(NC(=O)CCCCCCNC(=O)c7cc(NC(=O)c8cc(NC(=O)c9nccn9C)cn8C)cn7C)cn6C)cn5C)cn4C)cn3C)cn2C)cn1C [ImPyPy-C7-ImImPy-γ-PyPyPy-β-Dp, ImPyPy-X-ImImPy-γ-PyPyPy-β-Dp]
5′-AACCAAGTCTTGGTA-3′; [2]
  Ka Match: 2e+08 M⁻¹
5′-AACCAAGTCTTGGTA-3′; Table 5
  Specificity Center mismatch: 2
  Specificity Edge mismatch: 2

## CN(C)CCCNC(=O)CCNC(=O)c1cc(NC(=O)c2cc(NC(=O)c3nc(NC(=O)CCNC(=O)CCNC(=O)c4cc(NC(=O)c5cc(NC(=O)c6cc(NC(=O)CCCNC(=O)c7cc(NC(=O)c8nc(NC(=O)c9nccn9C)cn8C)cn7C)cn6C)cn5C)cn4C)cn3C)cn2C)cn1C [ImImPy-γ-PyPyPy-β-β-ImPyPy-β-Dp, ImImPy-γ-PyPyPy-X-ImPyPy-β-Dp]
5′-AACCAAGTCTTGGTA-3′; [3]
  Ka Match: 1e+10 M⁻¹
5′-AACCAAGTCTTGGTA-3′; Table 6
  Specificity Center mismatch: 1
  Specificity Edge mismatch: 1

## CN(C)CCCNC(=O)CCNC(=O)c1cc(NC(=O)c2cc(NC(=O)c3cc(NC(=O)CCCNC(=O)c4cc(NC(=O)c5nc(NC(=O)c6nc(NC(=O)CCCCCNC(=O)c7cc(NC(=O)c8cc(NC(=O)c9nccn9C)cn8C)cn7C)cn6C)cn5C)cn4C)cn3C)cn2C)cn1C [ImPyPy-C6-ImImPy-γ-PyPyPy-β-Dp, ImPyPy-X-ImImPy-γ-PyPyPy-β-Dp]
5′-AACCAAGTCTTGGTA-3′; [2]
  Ka Match: 2e+08 M⁻¹
5′-AACCAAGTCTTGGTA-3′; Table 5
  Specificity Center mismatch: 12
  Specificity Edge mismatch: 15

## CN(C)CCCNC(=O)c1cc(NC(=O)c2cc(NC(=O)c3cc(NC(=O)c4nccn4C)cn3C)cn2C)cn1C [ImPyPyPy-Dp]
[1]
  specificity (ratio of match site affinity to affinity of the single base pair mismatch site): 5.3-fold
  association constant: 8.5e+06 M⁻¹

## CN(C)CCCNC(=O)CCNC(=O)c1cc(NC(=O)c2cc(NC(=O)c3nc(NC(=O)CCCCCNC(=O)c4cc(NC(=O)c5cc(NC(=O)c6nccn6C)cn5C)cn4C)cn3C)cn2C)cn1C [ImPyPy-C6-ImPyPy-β-Dp]
5′-TGTCAAAGACA-3′
  5′-TGTCAAAGACA-3′: 5 × 10^7
5′-TGTCAAGACA-3′
  5′-TGTCAAGACA-3′: 2 × 10^8
5′-TGTCAGACA-3′
  5′-TGTCAGACA-3′: 1 × 10^8
5′-gcggtTGTCAacccg-3′
  5′-gcggtTGTCAacccg-3′: 5 × 10^7

## CN(C)CCCNC(=O)CCNC(=O)c1cc(NC(=O)c2cc(NC(=O)c3cc(NC(=O)CCCNC(=O)c4cc(NC(=O)c5nc(NC(=O)c6nc(NC(=O)CCCNC(=O)c7cc(NC(=O)c8cc(NC(=O)c9nccn9C)cn8C)cn7C)cn6C)cn5C)cn4C)cn3C)cn2C)cn1C [ImPyPy-γ-ImImPy-γ-PyPyPy-β-Dp, ImPyPy-X-ImImPy-γ-PyPyPy-β-Dp]
5′-AACCAAGTCTTGGTA-3′; [2]
  Ka Match: 1e+07 M⁻¹
5′-AACCAAGTCTTGGTA-3′; Table 5
  Specificity Center mismatch: 1
  Specificity Edge mismatch: 1

## Cn1cc(NC(=O)c2cc(NC(=O)c3cc(NC(=O)CCCNC(=O)c4cc(NC(=O)c5nc(NC(=O)c6nc(NC(=O)CCCCNC(=O)c7cc(NC(=O)c8cc(NC(=O)c9nccn9C)cn8C)cn7C)cn6C)cn5C)cn4C)cn3C)cn2C)cc1C(=O)NCCCO [ImPyPy-C5-ImImPy-γ-PyPyPy-C3—OH]
5′-AACCAAGTCTTGGTA-3′
  Ka 5′-AACCAAGTCTTGGTA-3′: 3 × 10^7
  Specificity 5′-AACCAACTGTTGGTA-3′: >3
  Specificity 5′-AACCAAGTCTTGCGA-3′: >3

## CN(C)CCCNC(=O)CCNC(=O)c1cc(NC(=O)c2cc(NC(=O)c3cc(NC(=O)CCCNC(=O)c4cc(NC(=O)c5nc(NC(=O)c6nc(NC(=O)CCCCNC(=O)CCNC(=O)c7cc(NC(=O)c8cc(NC(=O)c9nccn9C)cn8C)cn7C)cn6C)cn5C)cn4C)cn3C)cn2C)cn1C [ImPyPy-β-C5-ImImPy-γ-PyPyPy-β-Dp, ImPyPy-X-ImImPy-γ-PyPyPy-β-Dp]
5′-AACCAAGTCTTGGTA-3′; [2]
  Ka Match: 1e+08 M⁻¹
5′-AACCAAGTCTTGGTA-3′; Table 5
  Specificity Center mismatch: 2
  Specificity Edge mismatch: 2

## CN(C)CCCNC(=O)CCNC(=O)c1cc(NC(=O)c2cc(NC(=O)c3nc(NC(=O)CCCCCCNC(=O)c4cc(NC(=O)c5cc(NC(=O)c6cc(NC(=O)CCCNC(=O)c7cc(NC(=O)c8nc(NC(=O)c9nccn9C)cn8C)cn7C)cn6C)cn5C)cn4C)cn3C)cn2C)cn1C [ImImPy-γ-PyPyPy-C7-ImPyPy-β-Dp, ImImPy-γ-PyPyPy-X-ImPyPy-β-Dp]
5′-AACCAAGTCTTGGTA-3′; [3]
  Ka Match: 1e+09 M⁻¹
5′-AACCAAGTCTTGGTA-3′; Table 6
  Specificity Center mismatch: 1
  Specificity Edge mismatch: 1

## Cn1cc(NC(=O)c2cc(NC(=O)c3cc(NC(=O)CCCNC(=O)c4cc(NC(=O)c5nc(NC(=O)c6nc(NC(=O)CCCCCNC(=O)c7cc(NC(=O)c8cc(NC(=O)c9nccn9C)cn8C)cn7C)cn6C)cn5C)cn4C)cn3C)cn2C)cc1C(=O)NCCCO [ImPyPy-C6-ImImPy-γ-PyPyPy-C3—OH]
5′-AACCAAGTCTTGGTA-3′
  Ka 5′-AACCAAGTCTTGGTA-3′: 3 × 10^7
  Specificity 5′-AACCAACTGTTGGTA-3′: 2
  Specificity 5′-AACCAAGTCTTGCGA-3′: 2

## ImPyPyPyPyPy-Dp
[1]
  specificity (ratio of match site affinity to affinity of the single base pair mismatch site): 2.7-fold
  association constant: 5.3e+07 M⁻¹

## CN(C)CCCNC(=O)CCNC(=O)c1cc(NC(=O)c2cc(NC(=O)c3cc(NC(=O)CCCNC(=O)c4cc(NC(=O)c5nc(NC(=O)c6nc(NC(=O)CCNC(=O)CCNC(=O)c7cc(NC(=O)c8cc(NC(=O)c9nccn9C)cn8C)cn7C)cn6C)cn5C)cn4C)cn3C)cn2C)cn1C [ImPyPy-β-β-ImImPy-γ-PyPyPy-β-Dp, ImPyPy-X-ImImPy-γ-PyPyPy-β-Dp]
5′-AACCAAGTCTTGGTA-3′; [2]
  Ka Match: 3e+08 M⁻¹
5′-AACCAAGTCTTGGTA-3′; Table 5
  Specificity Center mismatch: 2
  Specificity Edge mismatch: 2

## CN(C)CCCNC(=O)c1cc(NC(=O)c2cc(NC(=O)c3nccn3C)cn2C)cn1C [ImPyPy-Dp]
[1]
  specificity (ratio of match site affinity to affinity of the single base pair mismatch site): 6.5-fold
  association constant: 130000 M⁻¹

## ImPyPyPyPyPyPyPy-Dp
[1]
  specificity (ratio of match site affinity to affinity of the single base pair mismatch site): 1-fold
  association constant: <2e+07 M⁻¹

## CN(C)CCCNC(=O)CCNC(=O)c1cc(NC(=O)c2cc(NC(=O)c3cc(NC(=O)CCCNC(=O)c4cc(NC(=O)c5nc(NC(=O)c6nc(NC(=O)CCCCNC(=O)c7cc(NC(=O)c8cc(NC(=O)c9nccn9C)cn8C)cn7C)cn6C)cn5C)cn4C)cn3C)cn2C)cn1C [ImPyPy-C5-ImImPy-γ-PyPyPy-β-Dp, ImPyPy-X-ImImPy-γ-PyPyPy-β-Dp]
5′-AACCAAGTCTTGGTA-3′; [2]
  Ka Match: 4e+08 M⁻¹
5′-AACCAAGTCTTGGTA-3′; Table 5
  Specificity Center mismatch: 11
  Specificity Edge mismatch: 19

## Cn1cc(NC(=O)c2cc(NC(=O)c3cc(NC(=O)CCCNC(=O)c4cc(NC(=O)c5nc(NC(=O)c6nc(NC(=O)CCNC(=O)CCNC(=O)c7cc(NC(=O)c8cc(NC(=O)c9nccn9C)cn8C)cn7C)cn6C)cn5C)cn4C)cn3C)cn2C)cc1C(=O)NCCCO [ImPyPy-β-β-ImImPy-γ-PyPyPy-C3—OH]
5′-AACCAAGTCTTGGTA-3′
  Ka 5′-AACCAAGTCTTGGTA-3′: 1 × 10^8
  Specificity 5′-AACCAACTGTTGGTA-3′: 3
  Specificity 5′-AACCAAGTCTTGCGA-3′: 3

## CN(C)CCCNC(=O)CCNC(=O)c1cc(NC(=O)c2cc(NC(=O)c3nc(NC(=O)CCCCCNC(=O)c4cc(NC(=O)c5cc(NC(=O)c6cc(NC(=O)CCCNC(=O)c7cc(NC(=O)c8nc(NC(=O)c9nccn9C)cn8C)cn7C)cn6C)cn5C)cn4C)cn3C)cn2C)cn1C [ImImPy-γ-PyPyPy-C6-ImPyPy-β-Dp, ImImPy-γ-PyPyPy-X-ImPyPy-β-Dp]
5′-AACCAAGTCTTGGTA-3′; [3]
  Ka Match: 2e+08 M⁻¹
5′-AACCAAGTCTTGGTA-3′; Table 6
  Specificity Center mismatch: 1
  Specificity Edge mismatch: 2

## ImPyPyPyPy-Dp
[1]
  specificity (ratio of match site affinity to affinity of the single base pair mismatch site): 5.7-fold
  association constant: 4.5e+07 M⁻¹

## CN(C)CCCNC(=O)CCNC(=O)c1cc(NC(=O)c2cc(NC(=O)c3nc(NC(=O)CCCCNC(=O)c4cc(NC(=O)c5cc(NC(=O)c6cc(NC(=O)CCCNC(=O)c7cc(NC(=O)c8nc(NC(=O)c9nccn9C)cn8C)cn7C)cn6C)cn5C)cn4C)cn3C)cn2C)cn1C [ImImPy-γ-PyPyPy-C5-ImPyPy-β-Dp, ImImPy-γ-PyPyPy-X-ImPyPy-β-Dp]
5′-AACCAAGTCTTGGTA-3′; [3]
  Ka Match: 1e+09 M⁻¹
5′-AACCAAGTCTTGGTA-3′; Table 6
  Specificity Center mismatch: 2
  Specificity Edge mismatch: 2

## CN(C)CCCNC(=O)c1cc(NC(=O)c2cc(NC(=O)c3cc(NC(=O)c4cc(NC(=O)c5cc(NC(=O)c6cc(NC(=O)c7nccn7C)cn6C)cn5C)cn4C)cn3C)cn2C)cn1C [ImPyPyPyPyPyPy-Dp]
[1]
  specificity (ratio of match site affinity to affinity of the single base pair mismatch site): 2.8-fold
  association constant: 4.7e+07 M⁻¹

## CN(C)CCCNC(=O)CCNC(=O)c1cc(NC(=O)c2cc(NC(=O)c3cc(NC(=O)CCCNC(=O)c4cc(NC(=O)c5nc(NC(=O)c6nc(NC(=O)CCCCCCCNC(=O)c7cc(NC(=O)c8cc(NC(=O)c9nccn9C)cn8C)cn7C)cn6C)cn5C)cn4C)cn3C)cn2C)cn1C [ImPyPy-C8-ImImPy-γ-PyPyPy-β-Dp, ImPyPy-X-ImImPy-γ-PyPyPy-β-Dp]
5′-AACCAAGTCTTGGTA-3′; [2]
  Ka Match: 2e+08 M⁻¹
5′-AACCAAGTCTTGGTA-3′; Table 5
  Specificity Center mismatch: 10
  Specificity Edge mismatch: 10
